Experimental data: ChEMBL document CHEMBL3885861, “Open TG-GATES”

Species: Rattus norvegicus
Assay: Open TG-GATES - Regimen: Single
Type: toxicity, organism-based, Sprague-Dawley
Design: regimen Single, gender Male, age 6 weeks
Settings: in vivo, po, route gavage; for APTT / Bas / Eos / Fbg / Hb / Ht / Lym / MCH / MCHC / MCV / Mono / Neu / PT / Plat / RBC / Ret / WBC: tissue Blood; for KIDNEY_L / KIDNEY_R / KIDNEY_TOTAL: tissue Kidney; for LIVER: tissue Liver; for A/G / ALP / ALT / AST / BUN / CRE / Ca / Cl / DBIL / GLC / IP / K / LDH / Na / PL / RALB / TBIL / TC / TG / TP / gamma-GTP: tissue Plasma
[1] = 300 mg/kg, 3 h, dose level Middle
[2] = 300 mg/kg, 6 h, dose level Middle
[3] = 300 mg/kg, 9 h, dose level Middle
[4] = 300 mg/kg, 24 h, dose level Middle
[5] = 1000 mg/kg, 3 h, dose level High
[6] = 1000 mg/kg, 6 h, dose level High
[7] = 1000 mg/kg, 9 h, dose level High
[8] = 1000 mg/kg, 24 h, dose level High

## CNC(=C[N+](=O)[O-])NCCSCc1ccc(CN(C)C)o1 [RANITIDINE]
[1]
  TERMINAL_BW: 216.6 g
  APTT: 21.3 s
  Bas: 0%
  Eos: 1.2%
  Fbg: 224 mg/dL
  Hb: 13.1 g/dL
  Ht: 38.4%
  Lym: 75.2%
  MCH: 21.7 pg
  MCHC: 34.2%
  MCV: 63.4 fL
  Mono: 2.4%
  Neu: 18.8%
  PT: 12.5 s
  Plat: 125.4 x10_4/uL
  RBC: 606 x10_4/ul
  Ret: 6.6%
  WBC: 93.9 x10_2/uL
  KIDNEY_L: 1 g
  KIDNEY_R: 1 g
  KIDNEY_TOTAL: 2 g
  LIVER: 9.9 g
  A/G: 1.7
  ALP: 1000.2 IU/L
  ALT: 34.4 IU/L
  AST: 63.8 IU/L
  BUN: 10.2 mg/dL
  CRE: 0.4 mg/dL
  Ca: 10.7 mg/dL
  Cl: 103.8 meq/L
  DBIL: 0.07 mg/dL
  GLC: 195.6 mg/dL
  IP: 8.4 mg/dL
  K: 3.8 meq/L
  LDH: 141.6 IU/L
  Na: 141.6 meq/L
  PL: 141.2 mg/dL
  RALB: 3.4 g/dL
  TBIL: 0.1 mg/dL
  TC: 74.2 mg/dL
  TG: 48 mg/dL
  TP: 5.5 g/dL
  gamma-GTP: 0.8 IU/L
[2]
  TERMINAL_BW: 214.7 g
  APTT: 18.8 s
  Bas: 0%
  Eos: 1%
  Fbg: 220.8 mg/dL
  Hb: 13.1 g/dL
  Ht: 37.8%
  Lym: 72.6%
  MCH: 21.6 pg
  MCHC: 34.7%
  MCV: 62.4 fL
  Mono: 2.4%
  Neu: 19.8%
  PT: 12.6 s
  Plat: 119.8 x10_4/uL
  RBC: 605 x10_4/ul
  Ret: 6.9%
  WBC: 82.1 x10_2/uL
  KIDNEY_L: 1 g
  KIDNEY_R: 1 g
  KIDNEY_TOTAL: 1.9 g
  LIVER: 9.2 g
  A/G: 1.6
  ALP: 918.8 IU/L
  ALT: 36.6 IU/L
  AST: 69.6 IU/L
  BUN: 8.4 mg/dL
  CRE: 0.4 mg/dL
  Ca: 10.4 mg/dL
  Cl: 103.6 meq/L
  DBIL: 0.06 mg/dL
  GLC: 193.4 mg/dL
  IP: 8.5 mg/dL
  K: 3.8 meq/L
  LDH: 111.4 IU/L
  Na: 140.4 meq/L
  PL: 129.2 mg/dL
  RALB: 3.3 g/dL
  TBIL: 0.1 mg/dL
  TC: 69.2 mg/dL
  TG: 43.2 mg/dL
  TP: 5.4 g/dL
  gamma-GTP: 1.4 IU/L
[3]
  TERMINAL_BW: 211.5 g
  APTT: 19.5 s
  Bas: 0%
  Eos: 1%
  Fbg: 241 mg/dL
  Hb: 13.3 g/dL
  Ht: 38.2%
  Lym: 67.8%
  MCH: 21.6 pg
  MCHC: 34.7%
  MCV: 62.3 fL
  Mono: 2.6%
  Neu: 26%
  PT: 12.7 s
  Plat: 116.8 x10_4/uL
  RBC: 614.4 x10_4/ul
  Ret: 7.2%
  WBC: 76 x10_2/uL
  KIDNEY_L: 1 g
  KIDNEY_R: 1 g
  KIDNEY_TOTAL: 1.9 g
  LIVER: 9.2 g
  A/G: 1.6
  ALP: 741.8 IU/L
  ALT: 32 IU/L
  AST: 61 IU/L
  BUN: 9.8 mg/dL
  CRE: 0.4 mg/dL
  Ca: 10.5 mg/dL
  Cl: 103.8 meq/L
  DBIL: 0.074 mg/dL
  GLC: 204.6 mg/dL
  IP: 8.4 mg/dL
  K: 3.6 meq/L
  LDH: 120.6 IU/L
  Na: 141.6 meq/L
  PL: 143.8 mg/dL
  RALB: 3.4 g/dL
  TBIL: 0.1 mg/dL
  TC: 76.4 mg/dL
  TG: 46 mg/dL
  TP: 5.6 g/dL
  gamma-GTP: 1.4 IU/L
[4]
  TERMINAL_BW: 230.2 g
  APTT: 23.9 s
  Bas: 0%
  Eos: 1%
  Fbg: 225.4 mg/dL
  Hb: 13.6 g/dL
  Ht: 38.7%
  Lym: 80.6%
  MCH: 22.5 pg
  MCHC: 35%
  MCV: 64.2 fL
  Mono: 2.4%
  Neu: 14%
  PT: 12.3 s
  Plat: 125.9 x10_4/uL
  RBC: 603.2 x10_4/ul
  Ret: 6.3%
  WBC: 104.2 x10_2/uL
  KIDNEY_L: 1 g
  KIDNEY_R: 1 g
  KIDNEY_TOTAL: 2 g
  LIVER: 11.2 g
  A/G: 1.7
  ALP: 1036.4 IU/L
  ALT: 33.4 IU/L
  AST: 63.2 IU/L
  BUN: 15.8 mg/dL
  CRE: 0.4 mg/dL
  Ca: 10.7 mg/dL
  Cl: 102.2 meq/L
  DBIL: 0.086 mg/dL
  GLC: 196.6 mg/dL
  IP: 7.6 mg/dL
  K: 4 meq/L
  LDH: 132.6 IU/L
  Na: 140 meq/L
  PL: 152.8 mg/dL
  RALB: 3.4 g/dL
  TBIL: 0.1 mg/dL
  TC: 79.2 mg/dL
  TG: 78.6 mg/dL
  TP: 5.3 g/dL
  gamma-GTP: 1 IU/L
[5]
  TERMINAL_BW: 218.6 g
  APTT: 21.3 s
  Bas: 0%
  Eos: 1%
  Fbg: 209 mg/dL
  Hb: 12.7 g/dL
  Ht: 36.7%
  Lym: 76.2%
  MCH: 21.7 pg
  MCHC: 34.7%
  MCV: 62.7 fL
  Mono: 2.4%
  Neu: 17.4%
  PT: 12.5 s
  Plat: 116.7 x10_4/uL
  RBC: 585.2 x10_4/ul
  Ret: 7.1%
  WBC: 84.3 x10_2/uL
  KIDNEY_L: 1 g
  KIDNEY_R: 1 g
  KIDNEY_TOTAL: 2.1 g
  LIVER: 10.5 g
  A/G: 1.7
  ALP: 944 IU/L
  ALT: 35.8 IU/L
  AST: 67.2 IU/L
  BUN: 9.4 mg/dL
  CRE: 0.4 mg/dL
  Ca: 10.5 mg/dL
  Cl: 104.4 meq/L
  DBIL: 0.064 mg/dL
  GLC: 181.2 mg/dL
  IP: 8.2 mg/dL
  K: 3.7 meq/L
  LDH: 148 IU/L
  Na: 141.4 meq/L
  PL: 133.6 mg/dL
  RALB: 3.3 g/dL
  TBIL: 0.1 mg/dL
  TC: 68 mg/dL
  TG: 44.8 mg/dL
  TP: 5.3 g/dL
  gamma-GTP: 1.2 IU/L
[6]
  TERMINAL_BW: 213.4 g
  APTT: 18.8 s
  Bas: 0%
  Eos: 1%
  Fbg: 232.8 mg/dL
  Hb: 13.4 g/dL
  Ht: 38%
  Lym: 72.8%
  MCH: 21.7 pg
  MCHC: 35.1%
  MCV: 62 fL
  Mono: 3%
  Neu: 18.4%
  PT: 12.7 s
  Plat: 106.2 x10_4/uL
  RBC: 613.8 x10_4/ul
  Ret: 7.1%
  WBC: 88.7 x10_2/uL
  KIDNEY_L: 0.9 g
  KIDNEY_R: 0.9 g
  KIDNEY_TOTAL: 1.9 g
  LIVER: 9.8 g
  A/G: 1.7
  ALP: 906.4 IU/L
  ALT: 37.2 IU/L
  AST: 63.8 IU/L
  BUN: 9.4 mg/dL
  CRE: 0.4 mg/dL
  Ca: 10.6 mg/dL
  Cl: 104 meq/L
  DBIL: 0.066 mg/dL
  GLC: 193.4 mg/dL
  IP: 8.3 mg/dL
  K: 3.6 meq/L
  LDH: 126.4 IU/L
  Na: 141 meq/L
  PL: 151.4 mg/dL
  RALB: 3.4 g/dL
  TBIL: 0.1 mg/dL
  TC: 80.8 mg/dL
  TG: 47.8 mg/dL
  TP: 5.4 g/dL
  gamma-GTP: 1.4 IU/L
[7]
  TERMINAL_BW: 210.2 g
  APTT: 20.1 s
  Bas: 0%
  Eos: 1%
  Fbg: 242.2 mg/dL
  Hb: 13.2 g/dL
  Ht: 38%
  Lym: 68.6%
  MCH: 21.8 pg
  MCHC: 34.8%
  MCV: 62.5 fL
  Mono: 2.4%
  Neu: 24.2%
  PT: 12.6 s
  Plat: 111.9 x10_4/uL
  RBC: 607.2 x10_4/ul
  Ret: 7.3%
  WBC: 74.1 x10_2/uL
  KIDNEY_L: 1 g
  KIDNEY_R: 1 g
  KIDNEY_TOTAL: 1.9 g
  LIVER: 9.2 g
  A/G: 1.6
  ALP: 955.2 IU/L
  ALT: 36 IU/L
  AST: 65.8 IU/L
  BUN: 8.8 mg/dL
  CRE: 0.3 mg/dL
  Ca: 10.6 mg/dL
  Cl: 103.8 meq/L
  DBIL: 0.066 mg/dL
  GLC: 197 mg/dL
  IP: 8.6 mg/dL
  K: 3.6 meq/L
  LDH: 126 IU/L
  Na: 140.8 meq/L
  PL: 152 mg/dL
  RALB: 3.4 g/dL
  TBIL: 0.1 mg/dL
  TC: 84.6 mg/dL
  TG: 30.2 mg/dL
  TP: 5.5 g/dL
  gamma-GTP: 1.2 IU/L
[8]
  TERMINAL_BW: 228.9 g
  APTT: 20.1 s
  Bas: 0.2%
  Eos: 1%
  Fbg: 235 mg/dL
  Hb: 13.9 g/dL
  Ht: 39.1%
  Lym: 79%
  MCH: 22.4 pg
  MCHC: 35.5%
  MCV: 63 fL
  Mono: 3.2%
  Neu: 15%
  PT: 11.7 s
  Plat: 122.4 x10_4/uL
  RBC: 621.4 x10_4/ul
  Ret: 5.9%
  WBC: 75.4 x10_2/uL
  KIDNEY_L: 1 g
  KIDNEY_R: 1 g
  KIDNEY_TOTAL: 2 g
  LIVER: 10.7 g
  A/G: 1.6
  ALP: 881.6 IU/L
  ALT: 33.2 IU/L
  AST: 60.4 IU/L
  BUN: 15.4 mg/dL
  CRE: 0.4 mg/dL
  Ca: 10.8 mg/dL
  Cl: 101.6 meq/L
  DBIL: 0.078 mg/dL
  GLC: 204.2 mg/dL
  IP: 7.9 mg/dL
  K: 3.7 meq/L
  LDH: 127.8 IU/L
  Na: 140.4 meq/L
  PL: 155.6 mg/dL
  RALB: 3.4 g/dL
  TBIL: 0.1 mg/dL
  TC: 84.4 mg/dL
  TG: 67.8 mg/dL
  TP: 5.6 g/dL
  gamma-GTP: 0.8 IU/L
